These results are taken from US6982348B2, “Aminoethanol derivatives” (Takeda Pharmaceutical Company Limited, priority 2001, dated 2006).

Structures are written as SMILES.

The term melting point denotes the temperature of the solid-liquid transition. For `O=C(N[C@H](Cc1cccc(OC(F)(F)C(F)F)c1)[C@@H](O)c1ccc(-c2ccccc2)nc1)c1cccc2c1C=CCCC2` (racemic) [Example 330, N-[(1RS,2SR)-2-hydroxy-2-(6-phenylpyridin-3-yl)-1-[3-(1,1,2,2-tetrafluoroethoxy)benzyl]ethyl]-6,7-dihydro-5H-benzo[a]cycloheptene-1-carboxamide], the melting point fell in the range of 174 to 175 °C.

`CC(C)(C)C(Cc1ccccc1)C(=O)N[C@H](Cc1ccc(C(F)(F)F)cc1)[C@@H](O)c1ccc(F)cc1` (mixture of isomers) [Example 112, 2-benzyl-N-[(1RS,2SR)-2-(4-fluorophenyl)-2-hydroxy-1-[4-(trifluoromethyl)benzyl]ethyl]-3,3-dimethylbutyramide] came in with a melting point of 175 to 176 °C.

Compound `CC(C)(C)OC(=O)N[C@H](Cc1ccc(C#N)cc1)[C@@H](O)c1ccc(F)cc1` (racemic) [Example 152, tert-butyl N-[(1RS,2SR)-1-(4-cyanobenzyl)-2-(4-fluorophenyl)-2-hydroxyethyl]carbamate] displayed a melting point of 203 to 204 °C.

`O=S(=O)(N[C@H](Cc1ccc(C(F)(F)F)cc1)[C@@H](O)c1ccc(F)cc1)c1cccc2ccccc12` (racemic) [Example 117, N-((1RS,2SR)-2-(4-fluorophenyl)-2-hydroxy-1-((4-(trifluoromethyl)phenyl)methyl)ethyl)-1-naphthalenesulfonamide] gave a melting point of 176 to 177 °C.

For the compound `O=C(N[C@H](Cc1cccc(Oc2ccccc2)c1)[C@@H](O)c1ccc(F)cc1)c1ccc(F)c2ccccc12` (racemic) [Example 160, 4-fluoro-N-((1RS,2SR)-2-(4-fluorophenyl)-2-hydroxy-1-((3-(phenyloxy)phenyl)methyl)ethyl)-1-naphthalenecarboxamide], the melting point lay within 120 to 121 °C.

`COc1ccccc1-c1ccc([C@H](O)[C@@H](Cc2cccc(OC(F)(F)C(F)F)c2)NC(=O)c2cccc3c2C=CCCC3)cc1` (racemic) [Example 296, N-[(1RS,2SR)-2-hydroxy-2-(2′-methoxy[1,1′-biphenyl]-4-yl)-1-[3-(1,1,2,2-tetrafluoroethoxy)benzyl]ethyl]-6,7-dihydro-5H-benzo[a]cycloheptene-1-carboxamide]: the melting point was 148 to 150 °C.

In the case of `O=C(N[C@H](Cc1ccc(C(F)(F)F)cc1)[C@@H](O)c1ccc(F)cc1)c1ccc(F)cc1` (racemic) [Example 55, 4-fluoro-N-((1RS,2SR)-2-(4-fluorophenyl)-2-hydroxy-1-((4-(trifluoromethyl)phenyl)methyl)ethyl)benzamide], the melting point was 202 to 203 °C.

Compound `O=C(N[C@H](Cc1ccc(C(F)(F)F)cc1)[C@@H](O)c1ccc(F)cc1)c1ccc(F)c2c1CCCC2` (racemic) [Example 31, 4-fluoro-N-[(1RS,2SR)-2-(4-fluorophenyl)-2-hydroxy-1-[4-(trifluoromethyl)benzyl]ethyl]-5,6,7,8-tetrahydronaphthalene-1-carboxamide] registered a melting point of 241 to 242 °C.

In turn, `O=C(N[C@H](Cc1ccc(C(F)(F)F)cc1)[C@@H](O)c1ccc(F)cc1)c1cccc2cc([N+](=O)[O-])ccc12` (racemic) [Example 51, N-[(1RS,2SR)-2-(4-fluorophenyl)-2-hydroxy-1-[4-(trifluoromethyl)benzyl]ethyl]-6-nitronaphthalene-1-carboxamide] showed a melting point of 206 to 207 °C.

With `O=C(N[C@H](Cc1cccc(OC(F)(F)C(F)F)c1)[C@@H](O)c1ccc(Oc2ccccn2)cc1)c1ccc(F)c2ccccc12` (racemic) [Example 259, 4-fluoro-N-{(1RS,2SR)-2-hydroxy-2-[4-(pyridin-2-yloxy)phenyl]-1-[3-(1,1,2,2-tetrafluoroethoxy)benzyl]ethyl}-1-naphthamide], the melting point was 176 to 177 °C.

For `O=C(Nc1ccccc1)c1ccc([C@H](O)[C@@H](Cc2cccc(OC(F)(F)C(F)F)c2)NC(=O)c2cccc3c2C=CCCC3)cc1` (racemic) [Example 314, N-[(1RS,2SR)-2-[4-(anilinocarbonyl)phenyl]-2-hydroxy-1-[3-(1,1,2,2-tetrafluoroethoxy)benzyl]ethyl]-6,7-dihydro-5H-benzo[a]cycloheptene-1-carboxamide], the melting point was in the range of 205 to 206 °C.

The compound `Cc1ccc(C(=O)N[C@H](Cc2ccc(C(F)(F)F)cc2)[C@@H](O)c2ccc(F)cc2)c2ccccc12` (racemic) [Example 36, N-((1RS,2SR)-2-(4-fluorophenyl)-2-hydroxy-1-((4-(trifluoromethyl)phenyl)methyl)ethyl)-4-methyl-1-naphthalenecarboxamide] yielded a melting point of 198 to 199 °C.

For `COc1ccc(C(=O)NC(Cc2ccc(C(F)(F)F)cc2)C(O)c2ccc(F)cc2)cc1` (racemic) [Example 7, N-[2-(4-fluorophenyl)-2-hydroxy-1-[[4-(trifluoromethyl)phenyl]methyl]ethyl]-4-methoxybenzamide], the melting point was 174 to 176 °C.

In turn, `O=C(N[C@H](Cc1ccc(C(F)(F)F)cc1)[C@@H](O)c1ccc(F)cc1)c1cccc2c1CCCCC2` (racemic) [Example 42, N-[(1RS,2SR)-2-(4-fluorophenyl)-2-hydroxy-1-[4-(trifluoromethyl)benzyl]ethyl]-6,7,8,9-tetrahydro-5H-benzo[a]cycloheptene-1-carboxamide] yielded a melting point of 210 to 211 °C.

For `O=C(CCc1ccccc1)N[C@H](Cc1ccc(C(F)(F)F)cc1)[C@@H](O)c1ccccc1` (racemic) [Example 175, N-((1RS,2SR)-2-hydroxy-2-phenyl-1-((4-(trifluoromethyl)phenyl)methyl)ethyl)-3-phenylpropanamide], the melting point was in the range of 147 to 148 °C.

The compound `O=C(N[C@H](Cc1cccc(OCC(F)(F)F)c1)[C@@H](O)c1ccc(F)cc1)c1ccc(F)c2ccccc12` (racemic) [Example 170, N-((1RS,2SR)-2-(4-fluorophenyl)-2-hydroxy-1-((3-(2,2,2-trifluoroethoxy)phenyl)methyl)ethyl)-4-fluoro-1-naphthalenecarboxamide] came in with a melting point of 192 to 193 °C.

Take `O=C(N[C@H](Cc1ccc(C(F)(F)F)cc1)[C@@H](O)c1ccc(F)cc1)c1ccc(/C=C\c2ccc(Cl)cc2)cc1` (racemic) [Example 89, 4-[(Z)-2-(4-chlorophenyl)ethenyl]-N-[(1RS,2SR)-2-(4-fluorophenyl)-2-hydroxy-1-[4-(trifluoromethyl)benzyl]ethyl]benzenecarboxamide]: the melting point fell in the range of 193 to 194 °C.

As to `Nc1ccc([C@H](O)[C@@H](Cc2cccc(OC(F)(F)C(F)F)c2)NC(=O)c2cccc3c2C=CCCC3)cc1` (racemic) [Example 322, N-[(1RS,2SR)-2-(4-aminophenyl)-2-hydroxy-1-[3-(1,1,2,2-tetrafluoroethoxy)benzyl]ethyl]-6,7-dihydro-5H-benzo[a]cycloheptene-1-carboxamide], the melting point was in the range of 153 to 155 °C.

In the case of `O=C(N[C@H](Cc1cccc(C(F)(F)F)c1)[C@@H](O)c1ccc(F)cc1)c1cccc2ccccc12` (racemic) [Example 136, N-((1RS,2SR)-2-(4-fluorophenyl)-2-hydroxy-1-((3-(trifluoromethyl)phenyl)methyl)ethyl)-1-naphthalenecarboxamide], the melting point was in the range of 158 to 159 °C.

With `COC(=O)c1ccc([C@@H](O)[C@H](Cc2cccc(OC(F)(F)C(F)F)c2)NC(=O)c2cccc3c2C=CCCC3)cc1` (racemic) [Example 309, methyl 4-[(1RS,2SR)-2-[(6,7-dihydro-5H-benzo[a]cyclohepten-1-ylcarbonyl)amino]-1-hydroxy-3-[3-(1,1,2,2-tetrafluoroethoxy)phenyl]propyl]benzoate], the melting point lay in the range of 137 to 138 °C.

On to `O=C(CCCc1ccccc1)N[C@H](Cc1ccc(F)cc1)[C@@H](O)c1ccc(C(F)(F)F)cc1` (racemic) [Example 215, N-((1RS,2SR)-1-((4-fluorophenyl)methyl)-2-hydroxy-2-(4-(trifluoromethyl)phenyl)ethyl)-4-phenylbutyramide], for which the melting point lay within 155 to 156 °C.

On to `Cc1ccc(C(=O)N[C@H](Cc2cccc(OC(F)(F)C(F)F)c2)[C@@H](O)c2ccc(F)cc2)c2c1CCCC=C2` (racemic) [Example 318, N-[(1RS,2SR)-2-(4-fluorophenyl)-2-hydroxy-1-[3-(1,1,2,2-tetrafluoroethoxy)benzyl]ethyl]-4-methyl-6,7-dihydro-5H-benzo[a]cycloheptene-1-carboxamide], for which the melting point was in the range of 177 to 178 °C.

Turning to `O=C(N[C@H](Cc1ccc(F)cc1)[C@@H](O)c1ccc(F)cc1)c1cccc2ccccc12` (racemic) [Example 144, N-((1RS,2SR)-2-(4-fluorophenyl)-1-((4-fluorophenyl)methyl)-2-hydroxyethyl)-1-naphthalenecarboxamide], the melting point is 199 to 200 °C.

As for `CC(C)(C)Cc1ccc(C[C@@H](NC(=O)c2ccc(F)c3ccccc23)[C@@H](O)c2cccc(Cl)c2)cc1` (racemic) [Example 345, 4-fluoro-N-[(1RS,2SR)-2-(3-chlorophenyl)-2-hydroxy-1-(4-neopentylbenzyl)ethyl]naphthalene-1-carboxamide], the melting point fell in the range of 150 to 151 °C.

Compound `CC(C)(C)C(F)(F)c1ccc(C[C@@H](NC(=O)c2cccc3c2C=CCCC3)[C@@H](O)c2cccc(Cl)c2)cc1` (racemic) [Example 380, N-{(1RS,2SR)-2-(3-chlorophenyl)-1-[4-(1,1-difluoro-2,2-dimethylpropyl)benzyl]-2-hydroxyethyl}-6,7-dihydro-5H-benzo[a]cycloheptene-1-carboxamide] displayed a melting point of 119 to 120 °C.

For the compound `CC(C)(C)c1ccc(C[C@@H](NC(=O)c2ccc(F)c3ccccc23)[C@@H](O)c2cccc(Cl)c2)cc1` (racemic) [Example 273, N-[(1RS,2SR)-1-(4-tert-butylbenzyl)-2-(3-chlorophenyl)-2-hydroxyethyl]-4-fluoro-1-naphthamide], the melting point was in the range of 144 to 145 °C.

The compound `O=C(N[C@@H](Cc1ccc(C(F)(F)F)cc1)[C@H](O)c1ccc(F)cc1)c1ccc(C(F)F)c2ccccc12` [Example 64, 4-(difluoromethyl)-N-((1S,2R)-2-(4-fluorophenyl)-2-hydroxy-1-((4-(trifluoromethyl)phenyl)methyl)ethyl)-1-naphthalenecarboxamide] yielded a melting point of 212 to 213 °C.
